Reference: patent US20250206763A1, “ENPP1 INHIBITOR” (SHANGHAI QILU PHARMACEUTICAL RESEARCH AND DEVELOPMENT …, priority 2022, published 2025)
pIC50: −log10 of the molar value.

Target: T1, human ENPP1 (Homo sapiens, UniProt P22413)
T1 construct: purchased Biovendor AP-18-081; host or cells: HEK293
T1 sequence (P22413 1-925): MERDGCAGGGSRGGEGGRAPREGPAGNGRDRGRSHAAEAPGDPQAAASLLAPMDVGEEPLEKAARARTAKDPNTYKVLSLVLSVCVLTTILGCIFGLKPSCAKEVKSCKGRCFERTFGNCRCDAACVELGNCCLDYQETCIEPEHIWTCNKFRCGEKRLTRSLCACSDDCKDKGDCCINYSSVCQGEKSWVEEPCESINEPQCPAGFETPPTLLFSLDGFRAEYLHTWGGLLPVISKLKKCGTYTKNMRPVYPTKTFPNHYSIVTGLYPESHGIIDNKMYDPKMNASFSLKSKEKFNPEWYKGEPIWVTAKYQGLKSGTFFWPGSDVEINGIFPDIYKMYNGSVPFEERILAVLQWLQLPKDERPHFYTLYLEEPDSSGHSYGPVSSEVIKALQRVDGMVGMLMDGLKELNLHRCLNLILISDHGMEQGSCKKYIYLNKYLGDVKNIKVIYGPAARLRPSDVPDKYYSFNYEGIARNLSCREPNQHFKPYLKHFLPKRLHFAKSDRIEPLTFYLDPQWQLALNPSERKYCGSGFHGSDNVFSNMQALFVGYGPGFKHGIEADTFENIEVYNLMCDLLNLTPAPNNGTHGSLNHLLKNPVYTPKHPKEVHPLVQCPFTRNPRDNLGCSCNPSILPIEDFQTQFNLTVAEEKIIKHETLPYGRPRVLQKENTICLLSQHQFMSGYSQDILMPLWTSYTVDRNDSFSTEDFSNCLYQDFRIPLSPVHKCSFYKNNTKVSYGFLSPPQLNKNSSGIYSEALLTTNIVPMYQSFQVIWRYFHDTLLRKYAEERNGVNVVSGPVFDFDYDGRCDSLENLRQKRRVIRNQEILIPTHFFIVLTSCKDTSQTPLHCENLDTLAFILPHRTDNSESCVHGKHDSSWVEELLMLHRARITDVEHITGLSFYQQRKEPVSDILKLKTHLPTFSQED
Assay: In vitro enzyme activity assay: human ENPP1 enzymatic assay (cGAMP), AMP-Glo
Assay type: biochemical
Conditions: substrate cGAMP, AMP-Glo detection
Method: AMP-Glo Assay Kit (PROMEGA, V5012), ENPP-1-IN-1 (MCE, HY-129490), white opaque 384-well plate (Perkin Elmer, 6008289), Mammalian (non-canonical) CDN, cyclic[g(2′,5′)pA(3′,5′)p](referred to as cGAMP hereinafter, Invivogen, tlrl-nacga23-5), ENPP1 Protein Human HEK293 (Biovendor, AP-18-081).
• 1) Preparing 1× reaction buffer (Tris buffer), 1× enzyme buffer, and 1× substrate buffer; • 2) diluting the compounds using Echo550 and supplementing with DMSO; • 3) pre-loading 2.5 μL of enzyme solution on a reaction plate (adding 2.5 μL of buffer instead as negative control) and incubating it at room temperature; • 4) adding 2.5 μL of substrate solution to the system and incubating it at room temperature; • 5) adding 5 μL of AMP-Glo solution that has been allowed to cooled down to room temperature, centrifuging and reacting at room temperature, • 6) adding 10 μL of AMP Detection solution at room temperature, centrifuging and reacting at room temperature; and • 7) reading the plate using EnVision.

Row | Structure (SMILES) | pIC50
1 | Cn1c(=O)n(Cc2ccc(S(C)(=N)=O)cc2)c2c3ccc4c(c3ncc21)OCO4 (centres unmarked) [Compound 44] | > 8.00
2 | O=c1n(CC2CCC2)c2cnc3c4c(ccc3c2n1Cc1ccc(P(=O)(O)O)c(F)c1)OCO4 [Compound 19] | > 8.00
3 | O=c1n(Cc2ccc(P(=O)(O)O)c(F)c2)c2c3ccc4c(c3ncc2n1C1CCOCC1)OCO4 [Compound 28] | > 8.00
4 | O=c1[nH]c2cnc3c4c(ccc3c2n1Cc1cc(F)c(P(=O)(O)O)cc1F)OCO4 [Compound 17] | > 8.00
5 | NS(=O)(=O)c1ccc(Cn2c(=O)[nH]c3cnc4c5c(ccc4c32)OCO5)cc1F [Compound 37] | > 8.00
6 | CN(C)CCCn1c(=O)n(Cc2ccc(P(=O)(O)O)c(F)c2)c2c3ccc4c(c3ncc21)OCO4 [Compound 34] | > 8.00
7 | CN(C)CCn1c(=O)n(Cc2ccc(P(=O)(O)O)c(F)c2)c2c3ccc4c(c3ncc21)OCO4 [Compound 33] | > 8.00
8 | NS(=O)(=O)c1ccc(Cn2c(=O)[nH]c3cnc4c5c(ccc4c32)OCO5)c(F)c1 [Compound 39] | > 8.00
9 | CCn1c(=O)n(Cc2ccc(P(=O)(O)O)c(F)c2)c2c3ccc4c(c3ncc21)OCO4 [Compound 6, (4-((6-ethyl-7-oxo-6,7-dihydro-8H-[1,3]dioxolo[4,5-h]imidazo[4,5-c]quinolin-8-yl)methyl)-2-fluorophenyl)phosphonic acid] | > 8.00
10 | COc1cc(Cn2c(=O)[nH]c3cnc4c5c(ccc4c32)OCO5)ccc1P(=O)(O)O [Compound 49] | > 8.00
11 | O=c1n(CCCF)c2cnc3c4c(ccc3c2n1Cc1ccc(P(=O)(O)O)c(F)c1)OCO4 [Compound 26] | > 8.00
12 | O=c1n(CC(F)(F)F)c2cnc3c4c(ccc3c2n1Cc1ccc(P(=O)(O)O)c(F)c1)OCO4 [Compound 23] | > 8.00
13 | O=c1n(CCC2CCOCC2)c2cnc3c4c(ccc3c2n1Cc1ccc(P(=O)(O)O)c(F)c1)OCO4 [Compound 25] | > 8.00
14 | NS(=O)(=O)c1cnc(Cn2c(=O)[nH]c3cnc4c5c(ccc4c32)OCO5)c(F)c1 [Compound 63] | > 8.00
15 | Cc1nc2cnc3c4c(ccc3c2n1Cc1ccc(P(=O)(O)O)c(F)c1)OCO4 [Compound 54, (2-fluoro-4-((7-methyl-8H-[1,3]dioxolo[4,5-h]imidazo[4,4-c]quinolin-8-yl)methyl)phenyl)phosphonic acid] | > 8.00
16 | Cn1c(=O)n(Cc2c(F)cc(B(O)O)cc2F)c2c3ccc4c(c3ncc21)OCO4 [Compound 47] | > 8.00
17 | Cn1c(=O)n(Cc2ccc(P(=O)(O)O)c(F)c2)c2c3ccc4c(c3ncc21)OCO4 [Compound 3, (2-fluoro-4-((6-methyl-7-oxo-6,7-dihydro-8H-[1,3]dioxolo[4,5-h]imidazo[4,5-c]quinolin-8-yl)methyl)phenyl)phosphonic acid] | > 8.00
18 | O=c1[nH]c2cnc3c4c(ccc3c2n1Cc1ccc(B(O)O)cc1)OCO4 [Compound 48] | > 8.00
19 | O=c1[nH]c2cnc3c4c(ccc3c2n1Cc1ccc(P(=O)(O)O)cc1F)OCO4 [Compound 4, (3-fluoro-4-((7-oxo-6,7-dihydro-8H-[1,3]dioxolo[4,5-h]imidazo[4,5-c]quinolin-8-yl)methyl)phenyl)phosphonic acid] | > 8.00
20 | O=c1[nH]c2cnc3c4c(ccc3c2n1Cc1ccc(P(=O)(O)O)c(OCc2ccccc2)c1)OCO4 [Compound 61] | > 8.00
21 | Cn1c(=O)n(Cc2ccc(P(=O)(O)O)c(F)c2)c2c3cn[nH]c3ncc21 [Compound 60] | > 8.00
22 | CCn1c(=O)n(Cc2ccc(S(C)(=N)=O)cc2)c2c3ccc4c(c3ncc21)OCO4 (centres unmarked) [Compound 45] | > 8.00
23 | CCn1c(=O)n(Cc2c(F)cc(S(N)(=O)=O)cc2F)c2c3ccc4c(c3ncc21)OCO4 [Compound 41] | > 8.00
24 | C[S@@](=N)(=O)c1ccc(Cn2c(=O)[nH]c3cnc4c5c(ccc4c32)OCO5)cc1 (single isomer, unassigned) [Compound 43-P1] | 7.30 to 8.00
25 | CS(=N)(=O)c1ccc(Cn2c(=O)[nH]c3cnc4c5c(ccc4c32)OCO5)cc1F (centres unmarked) [Compound 42] | > 8.00
26 | O=c1n(CC(F)F)c2cnc3c4c(ccc3c2n1Cc1ccc(P(=O)(O)O)c(F)c1)OCO4 [Compound 7] | > 8.00
27 | O=c1[nH]c2cnc3c4c(ccc3c2n1Cc1c(F)cc(B(O)O)cc1F)OCO4 [Compound 46] | > 8.00

Row | Structure (SMILES) | pIC50
28 | O=c1[nH]c2cnc3c4c(ccc3c2n1Cc1ccc(P(=O)(O)O)c(Cl)c1)OCO4 [Compound 15] | > 8.00
29 | NS(=O)(=O)c1ccc(Cn2c(=O)[nH]c3cnc4c5c(ccc4c32)OCO5)cc1 [Compound 36] | > 8.00
30 | O=c1n(Cc2ccc(P(=O)(O)O)c(F)c2)c2c3ccc4c(c3ncc2n1C1CCCC1)OCO4 [Compound 27] | > 8.00
31 | O=c1n(CC2CCCC2)c2cnc3c4c(ccc3c2n1Cc1ccc(P(=O)(O)O)c(F)c1)OCO4 [Compound 20] | > 8.00
32 | O=c1n(CCCN2CCOCC2)c2cnc3c4c(ccc3c2n1Cc1ccc(P(=O)(O)O)c(F)c1)OCO4 [Compound 32] | > 8.00
33 | NS(=O)(=O)c1ccc(Cn2c(=O)[nH]c3cnc4c5c(ccc4c32)OCO5)nc1 [Compound 40] | > 8.00
34 | O=c1n(Cc2ccc(P(=O)(O)O)c(F)c2)c2c3ccc4c(c3ncc2n1-c1ccccc1)OCO4 [Compound 52] | > 8.00
35 | O=c1[nH]c2cnc3c4c(ccc3c2n1Cc1cc(F)c(P(=O)(O)O)cc1Cl)OCO4 [Compound 13] | > 8.00
36 | NS(=O)(=O)c1cc(F)c(Cn2c(=O)[nH]c3cnc4c5c(ccc4c32)OCO5)c(F)c1 [Compound 35] | > 8.00
37 | CC(C)(C)Cn1c(=O)n(Cc2ccc(P(=O)(O)O)c(F)c2)c2c3ccc4c(c3ncc21)OCO4 [Compound 22] | > 8.00
38 | O=c1n(CCC(F)(F)F)c2cnc3c4c(ccc3c2n1Cc1ccc(P(=O)(O)O)c(F)c1)OCO4 [Compound 24] | > 8.00
39 | CC(C)Cn1c(=O)n(Cc2ccc(P(=O)(O)O)c(F)c2)c2c3ccc4c(c3ncc21)OCO4 [Compound 18] | > 8.00
40 | CC(c1ccc(P(=O)(O)O)c(F)c1)n1c(=O)[nH]c2cnc3c4c(ccc3c21)OCO4 (centres unmarked) [Compound 5-P2] | > 8.00
41 | NS(=O)(=O)c1ccc(Cn2c(=O)[nH]c3cnc4c5c(ccc4c32)OCO5)c(F)c1F [Compound 38] | > 8.00
42 | CS(=O)(=O)CCn1c(=O)n(Cc2ccc(P(=O)(O)O)c(F)c2)c2c3ccc4c(c3ncc21)OCO4 [Compound 31] | > 8.00
43 | COc1cc2c(ncc3[nH]c(=O)n(Cc4ccc(P(=O)(O)O)c(F)c4)c32)c2c1OCO2 [Compound 55] | > 8.00
44 | CC(c1ccc(P(=O)(O)O)c(F)c1)n1c(=O)[nH]c2cnc3c4c(ccc3c21)OCO4 (centres unmarked) [Compound 5-P1] | > 8.00
45 | O=c1[nH]c2cnc3c4c(ccc3c2n1Cc1ccc(P(=O)(O)O)c(Br)c1)OCO4 [Compound 16] | > 8.00
46 | CN(C)CCn1c(=O)n(Cc2c(F)cc(S(N)(=O)=O)cc2F)c2c3ccc4c(c3ncc21)OCO4 [Compound 53] | > 8.00
47 | O=c1[nH]c2cnc3c4c(ccc3c2n1Cc1ccc(P(=O)(O)O)c2ccccc12)OCO4 [Compound 8] | 7.30 to 8.00
48 | C[S@](=N)(=O)c1ccc(Cn2c(=O)[nH]c3cnc4c5c(ccc4c32)OCO5)cc1 (single isomer, unassigned) [Compound 43-P2] | > 8.00
49 | CC(C)n1c(=O)n(Cc2ccc(P(=O)(O)O)c(F)c2)c2c3ccc4c(c3ncc21)OCO4 [Compound 10] | > 8.00
50 | O=c1n(Cc2ccc(P(=O)(O)O)c(F)c2)c2c3ccc4c(c3ncc2n1C1CC1)OCO4 [Compound 11] | > 8.00
51 | O=c1[nH]c2cnc3c4c(ccc3c2n1Cc1c(F)cc(P(=O)(O)O)cc1F)OCO4 [Compound 2, (3,5-difluoro-4-((7-oxo-6,7-dihydro-8H-[1,3]dioxolo[4,5-h]imidazo[4,5-c]quinolin-8-yl)methyl)phenyl)phosphonic acid] | > 8.00
52 | O=c1n(Cc2ccc(P(=O)(O)O)c(F)c2)c2c3ccc4c(c3ncc2n1C(F)F)OCO4 [Compound 51] | > 8.00
53 | O=c1n(CC2CCC(F)(F)CC2)c2cnc3c4c(ccc3c2n1Cc1ccc(P(=O)(O)O)c(F)c1)OCO4 [Compound 21] | > 8.00
